From patent US20060166905A1, “Aivlosin for the treatment of disease due to brachyspira pilosicoli or ornithobacterium rhinotracheale” (ECO Animal Health, LTD., priority 2003, published 2006)
In brackets after ≈: the same amount, converted by molar mass. Read-outs that look alike come from different tables or passages of the source.

What was measured:
Assay type in all cases: cell-based
[1] = system: Brachyspira pilosicoli; test: MIC of aivlosin by antibiotic dilution method in agar plates
Experimental: Determination of Minimum Inhibitory Concentration (MIC) of Aivlosin Against Brachyspira pilosicoli
(§1) The MIC of acetyl isovaleryltylosin was determined against 5 field strains of Brachyspira pilosicoli isolated from different pig populations in various parts of England using an antibiotic dilution method. Four replicates of 0.2 ml of each isolate were inoculated into agar plates prepared with antibiotic concentrations from 0.78 to 200 μg/ml. A strain of Brachyspira hyodysenteriae (P18A), for which the MIC for acetyl isovaleryltylosin was already known, was used as a control.

[2] = system: Brachyspira hyodysenteriae (P18A); test: MIC by antibiotic dilution method in agar plates, control strain; settings: Control P1 8A
Experimental: as §1

[3] = system: Ornithobacterium rhinotracheale; test: MIC test, twofold dilution in serum broth; settings: for MIC: Ornithobacterium rhinotracheale, read-out: concentration that inhibited the growth (MIC)
Experimental: Testing of Aivlosin and Tilmicosin (Pulmotil) Against Ornithobacterium rhinotracheale Using the MIC (Minimum Inhibitory Concentration) Test
The following antibiotics were each tested against four isolates of Ornithobacterium rhinotracheale (OR):
The antibiotics were tested against the following isolates of OR:
The concentration needed of each antibiotic was calculated according to its active ingredient.
The four freeze dried bacterial isolates of Ornithobacterium rhinotracheale were reconstituted, inoculated into 10 ml serum broth (supplied by OBP, code 655) and incubated at 37° C. for 48 hours. After incubation the optical density (OD) of each culture was read at 540 nm. To verify purity the cultures were plated out onto Blood Tryptose agar plates, incubated at 37° C., using 5 % CO2 conditions, for 48 hours after which the plates were examined for any contaminants.
12 tubes per isolate for each of the antibiotics were placed into a test tube rack. 2 ml serum broth was dispensed into each of the tubes. 2 ml of the antibiotic were then added to the first tube in the respective row and a twofold dilution were made (32 μg/ml-0.0625 μg/ml). 20 μl of the bacteria was then added to 11 of the tubes. The 12th tube, i.e. negative control received neither antibiotic nor bacteria. The 11th tube i.e. positive control only received 20 μl bacteria. All the tubes were then incubated at 37° C. and the MIC read after 48 hours incubation

[4] = even at relatively low concentrations

| MIC ([3]; the fourth isolate) [µg/mL] | MIC ([3]; three of the isolates tested) [µg/mL] | SMILES | preventing the growth of Brachyspira pilosicoli [1, 4] | MIC ([1]; field strain 0P0204-10-97(4)) [µg/mL] | MIC ([1]; field strain P0098-10-97) [µg/mL] | MIC ([1]; field strain P0352-10-98) [µg/mL] | MIC ([1]; field strain P0525-01-98) [µg/mL] | MIC ([1]; field strain P0730-09-97) [µg/mL] | MIC range ([1]; field strains, with the exception of isolate P0204-10-97 (4)) [µg/mL] | MIC [2] [µg/mL] | preventing the growth of Ornithobacterium rhinotracheale [3, 4] | concentration that inhibited the growth (MIC) ([3]; the isolates tested (four)) [µg/mL] |
| --- | --- | --- | --- | --- | --- | --- | --- | --- | --- | --- | --- | --- |
| – | – | CCC1OC(=O)CC(OC(C)=O)C(C)C(OC2OC(C)C(OC3CC(C)(O)C(OC(=O)CC(C)C)C(C)O3)C(N(C)C)C2O)C(CC=O)CC(C)C(=O)C=CC(C)=CC1COC1OC(C)C(O)C(OC)C1OC (stereo not drawn) [Aivlosin, 3-O-acetyl-4″-O-isovaleryl-tylosin] | particularly effective | <0.781 | 25.0 | 6.25 | 6.25 | 12.5 | 6.25 to 25.0 | 12.5 (≈ 12 µM) | particularly effective | 0.5 |
| 8 (≈ 9.2 µM) | 4 (≈ 4.6 µM) | CC[C@H]1OC(=O)C[C@@H](O)[C@H](C)[C@@H](O[C@@H]2O[C@H](C)[C@@H](O)[C@H](N(C)C)[C@H]2O)[C@@H](CCN2C[C@H](C)C[C@H](C)C2)C[C@@H](C)C(=O)/C=C/C(C)=C/[C@@H]1CO[C@@H]1O[C@H](C)[C@@H](O)[C@@H](OC)[C@H]1OC [Pulmotil, Tilmicosin] | – | – | – | – | – | – | – | – | – | – |
